Values joined by “and” are separate entries in the source; they are usually repeats but may differ in a detail not shown here. Equal entries are not always repeated.
Test: Metabolic chamber assay
Format: in vivo, mouse
Conditions: DIO ip APC; for AUC of RER, %, group mean: mean of APC group, N=4; for AUC of RER, % / RER of DIO: single animals
Protocol: Metabolic parameters of mice were determined using Columbus Instruments Comprehensive Lab Animal Monitoring System (CLAMS). The area unit under the curve (AUC) of respiratory exchange ratio (RER) and ambulatory activity (X-TOT) were calculated using Graphpad prism 8.0.

CC(C)=CCc1cc(C=CC(=O)O)cc(CC=C(C)C)c1O [APC, 3,5-diprenyl-4-hydroxycinnamic acid]
AUC of RER, %, group mean (Dark): 65.31%
AUC of RER, %, group mean (Light): 53.9%
AUC of RER, % (Light): 54.07% and 52.83% and 53.85% and 54.85%
RER of DIO, column mean over the RER curve (Mean of APC, 70 intervals, 4 animals): 0.8038
AUC of RER, %, column mean over total, light and dark (Mean of APC, two-way RM ANOVA): 79.47%
AUC of RER, %, group mean (Total): 119.2%
AUC of RER, % (Total): 125.06% and 111.68% and 115.24% and 124.86%
AUC of RER, % (dark): 70.99% and 58.85% and 61.39% and 70.01%
RER of DIO (interval 1, hour 0): 0.728 and 0.729 (2×) and 0.733
RER of DIO (interval 2, hour 0.7): 0.795 and 0.774 and 0.72 and 0.734
RER of DIO (interval 3, hour 1.1): 0.732 and 0.773 and 0.726 and 0.735
RER of DIO (interval 4, hour 1.5): 0.747 and 0.761 and 0.73 and 0.738
RER of DIO (interval 5, hour 1.8): 0.78 and 0.778 and 0.722 and 0.754
RER of DIO (interval 6, hour 2.2): 0.747 and 0.794 and 0.723 and 0.738
RER of DIO (interval 7, hour 2.6): 0.764 and 0.792 and 0.716 and 0.758
RER of DIO (interval 8, hour 2.9): 0.779 and 0.804 and 0.705 and 0.738
RER of DIO (interval 9, hour 3.3): 0.766 and 0.82 and 0.724 and 0.727
RER of DIO (interval 10, hour 3.7): 0.818 and 0.814 and 0.729 and 0.75
RER of DIO (interval 11, hour 4.0): 0.78 and 0.803 and 0.732 and 0.733
RER of DIO (interval 12, hour 4.4): 0.735 and 0.792 and 0.714 and 0.756
RER of DIO (interval 13, hour 4.8): 0.768 and 0.812 and 0.743 and 0.781
RER of DIO (interval 14, hour 5.1): 0.759 and 0.799 and 0.716 and 0.757
RER of DIO (interval 15, hour 5.5): 0.769 and 0.778 and 0.775 and 0.742
RER of DIO (interval 16, hour 5.9): 0.783 and 0.804 and 0.718 and 0.774
RER of DIO (interval 17, hour 6.2): 0.75 and 0.77 and 0.709 and 0.78
RER of DIO (interval 18, hour 6.6): 0.801 and 0.79 and 0.715 and 0.767
RER of DIO (interval 19, hour 7.0): 0.759 and 0.797 and 0.758 and 0.785
RER of DIO (interval 20, hour 7.3): 0.769 and 0.747 and 0.713 and 0.758
RER of DIO (interval 21, hour 7.7): 0.841 and 0.78 and 0.749 and 0.771
RER of DIO (interval 22, hour 8.1): 0.782 and 0.771 and 0.743 and 0.797
RER of DIO (interval 23, hour 8.4): 0.804 and 0.814 and 0.781 and 0.79
RER of DIO (interval 24, hour 8.8): 0.838 and 0.788 and 0.764 and 0.822
RER of DIO (interval 25, hour 9.2): 0.844 and 0.798 and 0.804 and 0.842
RER of DIO (interval 26, hour 9.5): 0.809 and 0.808 and 0.794 and 0.831
RER of DIO (interval 27, hour 9.9): 0.818 and 0.808 and 0.792 and 0.849
RER of DIO (interval 28, hour 10.3): 0.832 and 0.843 and 0.84 and 0.846
RER of DIO (interval 29, hour 10.6): 0.841 and 0.824 and 0.818 and 0.858
RER of DIO (interval 30, hour 11.0): 0.821 and 0.847 and 0.832 (2×)
RER of DIO (interval 31, hour 11.4): 0.844 and 0.835 and 0.841 and 0.829
RER of DIO (interval 32, hour 11.7): 0.827 and 0.833 and 0.828 and 0.825
RER of DIO (interval 33, hour 12.1): 0.841 and 0.831 and 0.816 (2×)
RER of DIO (interval 34, hour 12.5): 0.864 and 0.863 and 0.842 and 0.837
RER of DIO (interval 35, hour 12.8): 0.866 and 0.842 and 0.843 and 0.836
RER of DIO (interval 36, hour 13.2): 0.891 and 0.836 and 0.797 and 0.825
RER of DIO (interval 37, hour 13.6): 0.88 and 0.869 and 0.798 and 0.846
RER of DIO (interval 38, hour 13.9): 0.846 and 0.848 and 0.837 and 0.814
RER of DIO (interval 39, hour 14.3): 0.854 and 0.82 and 0.839 and 0.825
RER of DIO (interval 40, hour 14.7): 0.86 and 0.846 and 0.828 and 0.83
RER of DIO (interval 41, hour 15.0): 0.866 and 0.871 and 0.84 and 0.828
RER of DIO (interval 42, hour 15.4): 0.814 and 0.86 and 0.83 and 0.806
RER of DIO (interval 43, hour 15.8): 0.858 and 0.883 and 0.843 and 0.83
RER of DIO (interval 44, hour 16.1): 0.887 and 0.859 and 0.818 and 0.83
RER of DIO (interval 45, hour 16.5): 0.883 and 0.858 and 0.81 and 0.824
RER of DIO (interval 46, hour 16.9): 0.827 and 0.816 and 0.835 and 0.797
RER of DIO (interval 47, hour 17.2): 0.845 and 0.787 and 0.84 and 0.811
RER of DIO (interval 48, hour 17.6): 0.803 and 0.8 and 0.812 and 0.779
RER of DIO (interval 49, hour 18.0): 0.826 and 0.77 and 0.786 and 0.808
RER of DIO (interval 50, hour 18.3): 0.8 and 0.765 and 0.776 and 0.827
RER of DIO (interval 51, hour 18.7): 0.816 and 0.804 and 0.782 and 0.849
RER of DIO (interval 52, hour 19.1): 0.748 and 0.846 and 0.834 and 0.782
RER of DIO (interval 53, hour 19.4): 0.829 and 0.795 and 0.809 and 0.784
RER of DIO (interval 54, hour 19.8): 0.795 and 0.796 and 0.8 and 0.821
RER of DIO (interval 55, hour 20.2): 0.793 and 0.823 and 0.818 and 0.827
RER of DIO (interval 56, hour 20.5): 0.819 and 0.827 and 0.837 and 0.791
RER of DIO (interval 57, hour 20.9): 0.849 and 0.806 and 0.795 and 0.788
RER of DIO (interval 58, hour 21.3): 0.795 and 0.771 and 0.783 and 0.79
RER of DIO (interval 59, hour 21.6): 0.833 and 0.785 and 0.748 and 0.783

Reference: publication PMC8752738, “A propolis-derived small molecule ameliorates metabolic syndrome in obese mice by targeting the CREB/CRTC2 transcriptional complex” (Nature Communications, 2022)
